Laboratory results published in patent publication US4642355A, “Proline derivatives” (Otsuka Pharmaceutical Factory, Inc., priority 1984, dated 1987).
Where a name gives a salt, the structure may show the parent alone.

Experiments:
[1] = biological target: T1, angiotensin-converting enzyme (ACE) (Oryctolagus cuniculus, UniProt P12822); assay: Inhibitory activity against angiotensin-converting enzyme (ACE); assay type: biochemical, rabbit; details: for IC50: enzyme from rabbit lung acetone powder, substrate hippurylhistidyl-leucine, 37° C.
T1 construct: enzyme solution prepared from rabbit lung acetone powder; tissue Sigma Chemical Co., Ltd., U.S.A; host or cells: rabbit lung (acetone powder)
T1 sequence (P12822 34-1310): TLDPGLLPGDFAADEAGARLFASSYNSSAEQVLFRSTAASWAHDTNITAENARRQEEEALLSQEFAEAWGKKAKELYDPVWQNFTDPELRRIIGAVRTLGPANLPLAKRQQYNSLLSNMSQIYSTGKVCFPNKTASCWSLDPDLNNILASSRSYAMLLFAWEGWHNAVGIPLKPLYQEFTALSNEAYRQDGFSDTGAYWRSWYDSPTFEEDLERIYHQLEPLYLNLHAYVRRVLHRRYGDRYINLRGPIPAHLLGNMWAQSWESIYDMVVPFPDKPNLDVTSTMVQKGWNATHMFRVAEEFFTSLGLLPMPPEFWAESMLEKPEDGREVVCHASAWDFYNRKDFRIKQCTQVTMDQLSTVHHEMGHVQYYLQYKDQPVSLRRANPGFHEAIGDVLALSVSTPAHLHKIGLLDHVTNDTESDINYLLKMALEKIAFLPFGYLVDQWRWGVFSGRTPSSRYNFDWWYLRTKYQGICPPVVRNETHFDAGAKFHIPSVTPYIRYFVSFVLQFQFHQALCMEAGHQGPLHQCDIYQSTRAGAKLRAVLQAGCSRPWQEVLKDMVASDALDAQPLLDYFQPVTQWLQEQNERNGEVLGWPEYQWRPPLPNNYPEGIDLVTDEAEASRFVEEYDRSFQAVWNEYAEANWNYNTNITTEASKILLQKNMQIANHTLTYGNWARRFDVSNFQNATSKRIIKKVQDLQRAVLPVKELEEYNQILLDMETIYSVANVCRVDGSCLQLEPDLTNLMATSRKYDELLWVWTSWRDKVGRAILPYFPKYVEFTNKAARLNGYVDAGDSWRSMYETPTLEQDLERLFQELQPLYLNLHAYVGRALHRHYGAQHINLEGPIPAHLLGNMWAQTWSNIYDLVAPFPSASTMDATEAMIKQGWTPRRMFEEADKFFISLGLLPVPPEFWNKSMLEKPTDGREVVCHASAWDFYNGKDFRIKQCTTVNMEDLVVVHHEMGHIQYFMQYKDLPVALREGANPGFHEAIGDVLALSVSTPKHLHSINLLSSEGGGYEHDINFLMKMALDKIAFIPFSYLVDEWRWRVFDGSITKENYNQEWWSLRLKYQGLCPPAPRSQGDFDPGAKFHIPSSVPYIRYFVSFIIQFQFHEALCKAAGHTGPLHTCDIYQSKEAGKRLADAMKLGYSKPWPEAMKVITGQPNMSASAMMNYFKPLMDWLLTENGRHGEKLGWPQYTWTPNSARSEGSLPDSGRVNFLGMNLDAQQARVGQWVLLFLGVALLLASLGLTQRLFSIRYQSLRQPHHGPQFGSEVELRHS
Experimental: Inhibitory activity against angiotensin-converting enzyme (ACE)
A 100 μl quantity of an enzyme solution prepared from rabbit lung acetone powder (product of Sigma Chemical Co., Ltd., U.S.A.) was mixed with 100 μl of a sample solution. The mixture was gently shaken at 37° C. for 10 minutes. To the reaction mixture was added 100 μl of a solution containing 6.99 mM of hippurylhistidyl-leucine (product of Peptide Institute, Inc., Japan) as a substrate. The mixture was reacted at 37° C. for 45 minutes while being shaken. The reaction was terminated by addition of 200 μl of a 1N sulfuric acid aqueous solution to the reaction mixture. Sodium chloride (saturation amount) and diethyl ether (2 ml) were added to the reaction mixture to extract the hippuric acid formed by the reaction. The resulting mixture was vigorously shaken for 15 minutes and centrifuged at 2000 rpm for 5 minutes. A 1.5 ml quantity of the ether layer was separated. After the solvent was distilled off, the residue was redissolved in 1.5 ml of distilled water and the absorbance at 228 nm was measured. A control was prepared by repeating the same procedure as above except that 100 μl of distilled water was used in place of the sample solution.
The inhibitory activity was calculated by deducting the absorbance value of the residue formed by addition of the sample solution from that of the control, and the resulting value was divided by the absorbance value of the control and multiplied by 100, thereby giving a percent inhibition. The inhibitory activity was expressed as IC50, i.e., the concentration of the sample solution in the reaction mixture in which concentration 50% inhibition is achieved.
The test compounds used in the experiment are shown below.

[2] = test system: angiotensin-converting enzyme (ACE); assay: ACE inhibitory effect in normotensive rats (inhibition of pressor response to angiotensin I); assay type: in vivo; details: 1 mg/kg directly to the stomach, male Wistar rats, urethane anesthesia, AI/AII ratio
Experimental: ACE Inhibitory effect in normotensive rats
Male Wistar rats weighing 200 to 400 g were anesthetized by the intraperitoneal injection of urethane (1.25 g/kg) and held in the supine position. The degree of inhibition of pressor response to angiotensin (A) I was determined using these rats. The blood pressure was measured with a femoral artery cannula connected to a transducer (product of Nihon Kohden Kabushiki Kaisha, Japan, Model MPU-0.5-290-0-III) and recorded in terms of a mean blood pressure value through a carrier amplifier (product of Nihon Kohden Kabushiki Kaisha, Japan, Model RP-5) on a multipurpose polygraph (product of Nihon Kohden Kabushiki Kaisha, Japan, Model RM-85). The rats were set in an experimental device and left therein for 1 hour to stabilize the hemodynamics. Then experiments were commenced. Since the magnitude of the pressor response to AI varies with time, the ratio of the responses to AI and AII (AI/AII ratio) was used to determine the magnitude of the pressor response to AI which ratio remained more constant. Through the cannulated femoral vein, AI (300 ng/kg) was administered first and AII (300 ng/kg) was given in 5 minutes to measure an AI/AII ratio. At 30 minutes after the first administration of AI, AI (300 ng/kg) was similarly administered and AII (300 ng/kg) was given in 5 minutes, followed by measuring an AI/AII ratio. This procedure was repeated until a constant value of AI/AII ratio was obtained. (The mean value of AI/AII ratios each resulting from the repeated procedure is represented as "C" in an equation to be shown later). At 10 minutes after the final administration of AII, an aqueous solution containing 1 mg/kg of each test compound was given directly to the stomach through a vinyl tube. At 10 minutes after administration of the test compound, AI (300 ng/kg) was given and at 5 minutes later, AII (300 ng/kg) was administered, followed by measurement of the AI/AII ratio (which was represented as "E" in the following equation). An ACE percent inhibition was calculated according to the equation indicated below. [formula]
Subsequently at each time of 60, 120 and 240 minutes after the administration of the test compound, AI (300 ng/kg) was given in the same manner as above and AII (300 ng/kg) was administered in 5 minutes, whereupon an ACE percent inhibition was calculated in the same way.
The results are shown below in Table 26 in which the test compounds listed are those prepared in the Examples indicated therein.

ACE inhibitory activity higher than Test Compound No. 4 (fold) ([1]; compared with Test Compound No. 4)	IC50 [1]	SMILES	ACE Percent Inhibition, mean ± SD ([2]; 15 min. after administration)	ACE Percent Inhibition, mean ± SD ([2]; 60 min. after administration)	ACE Percent Inhibition, mean ± SD ([2]; 120 min. after administration)	ACE Percent Inhibition, mean ± SD ([2]; 240 min. after administration)
about 9.4 times	1.35 nM	CCCCCCSC[C@H](NC(C)C(=O)N1CCC[C@H]1C(=O)O)C(=O)O (single isomer, unassigned) [Test Compound 2]	–	–	–	–
–	5240 nM	COC(=O)[C@H](CCSC)NC(C)C(=O)N1CCC[C@H]1C(=O)O (stereo partly drawn) [Test Compound 5, N--[(S)--1-methoxycarbonyl-3-methylthiopropyl]-(R,S)--alanyl-(S)--proline hydrochloride, reference compound]	1 ± 5%	6 ± 4%	7 ± 6%	9 ± 1%
–	12.7 nM	CSCC[C@H](NC(C)C(=O)N1CCC[C@H]1C(=O)O)C(=O)O (stereo partly drawn) [Test Compound 4, N--[(S)--1-carboxy-3-methylthiopropyl]-(R,S)--alanyl-(S)--proline, reference compound]	–	–	–	–
